# From US9434701B2, “Aminoquinoxaline derivatives for treatment of neurodegenerative diseases” (CENTRE NATIONAL DE LA RECHERCHE SCIENTIFIQUE (CNRS), priority 2011, dated 2016)
# “Also recorded” adds a separate entry of the source. Like-named read-outs stand apart in the source and are kept apart here.
# Assays:
# [1] = test system: dopaminergic neurons (TH+) of rat embryo ventral midbrain culture; assay: dopaminergic neuron spontaneous degeneration model in culture, TH+ neuron count after 8 days (Schmidt et al. protocol); format: cell-based
# Method: (§1) Quinoxaline derivatives were tested on a dopaminergic neuron spontaneous degeneration model in culture according to the protocol described in the article by F. Schmidt et al. […] This model consists of culturing rat embryo ventral midbrain. This part of the brain in culture contains a proportion of dopaminergic neurons of 5% of the total neurons; the other neurons are mainly GABAergic. These cultures are also composed of glial cells, i.e., astrocytes, oligodendrocytes and microglia. These cultures are characterized by progressive neuron death.
# [2] = test system: dopaminergic neurons (TH+) of rat embryo ventral midbrain culture; assay: neuritogenic activity: neurite outgrowth per cell / differentiation of TH+ neurons; format: cell-based
# Method: as §1, with “death. […] To assess the neuritogenic activity of compounds according to the invention, neurite outgrowth per cell was quantified using the Neurite Outgrowth software developed by Xplora Nova. At least 60 neurons per condition were photographed and studied.” for “death.”
# [3] = passage of the blood-brain barrier, IP study: brain extract concentration by HPLC-MS/MS; format: in vivo, Rj Orl: SWISS mice; settings: for concentration at 2 h: male, Rj Orl: SWISS, mouse, brain extract, ip, 70 mg/kg, IP 70 mg/kg, ± SEM
# Method: Male Rj Orl: SWISS, mice, approximately 5 weeks old and weighing between 20 and 24 g at arrival (R Janvier Breeding Center, France) were kept in the animal room at constant temperature (22±1° C.) and controlled humidity (55±20%), with a 12-hour light/dark cycle (8:00 a.m.-8:00 p.m.). During the acclimation and study period, the mice had free access to food and water. All the experiments were conducted in compliance with the conditions of decree 2001-464 of May 29, 2001 relative to animal experimentation.
# Two treatment modes were used: intraperitoneal (IP) administration for 1 or 2 days or oral or per os administration for 5 days.
# The solution of compound 4bc to be injected at a concentration of 7.0 g/L was prepared in a carrier containing 10% Tween 20+20% DMSO+70% 0.9% NaCl in water.
# Three animal groups were created: • mice who received the carrier by IP at 10 mL/kg (Group V, n=2), • mice treated with compound 4bc by IP at 70 mg/kg and at 10 mL/kg (Group T, n=6), • one untreated mouse that was used as a […] control during analysis.
# Treated mice T2 and T3 received treatments as follows:
# Treated mice T1, T4, T5 and T6 as well as the mice receiving the carrier V1 and V2 received the treatments/carriers as follows:
# The mice were anesthetized by an injection of 0.1 mL of a 6% sodium pentobarbital solution and then the mice were infused to eliminate the compound present in the plasma with a 0.9% NaCl solution containing heparin (200 μL of heparin choay to 5000 IU/mL in one liter of 0.9% NaCl). Each animal was infused with a minimum of 50 mL of this solution. The mouse was then decerebrated and the cerebellum, brainstem and olfactory bulbs were removed by dissection.
# For the IP study, the brain was dissected into two parts (right and left hemisphere).
# Each mouse brain sample treated with compound 4bc was weighed, placed in MeOH (100 μl MeOH per 10 mg of brain tissue) and then mixed by sonication. The suspensions thus obtained were centrifuged at 14,000 g for 7 minutes at 4° C. for IP or at 27,000 g for 10 minutes, at 4° C. for oral administration. The supernatants, diluted by half in MeOH, were transferred into HPLC vials for analysis of the presence of compound 4bc by HPLC-MS/MS.
# Detection and quantification, based on peak area, were done by HPLC-MS/MS in MRM mode.
# The HPLC system was composed of a Dionex Ultimate 3000 pump equipped with a Dionex WPS-3000PL automatic sample injector. The mass spectrometer used is a Water-Micromass Quattro Ultima equipped with an electrospray ionization source and a triple quadrupole analyzer. Data was acquired and analyzed by Masslynx 3.5.
# Liquid chromatography was performed in isocratic mode with a Nucleodur™ (Macherey-Nagel) C18, 125×2.1 mm column with a particle size of 5.0 μm. The mobile phase was composed of a mixture of two phases A and B, in a proportion of 30/70. Phase A was composed of 1% acetic acid in water (v/v). Phase B was composed of 1% acetic acid in MeOH (v/v). The flow rate was set at 0.2 mL/min; the injection volume was 5 μl.
# The mass spectrometer was connected to the HPLC system by using an electrospray ionization source. A switching valve was programmed before injection of the sample for rinsing and equilibration of the capillary, so as to prevent any accumulation of salt in the source capillary. The capillary voltage was set at 4000 V and the cone voltage at 80 V; the source temperature was set at 120° C.; the desolvation gas (N2) was set at a flow rate of 529 and the temperature at 350° C. The mass spectra were obtained in positive mode. The parameters were optimized to obtain the maximum molecular ion ([M+H]^+) at m/z 236.41, corresponding to compound 4bc. Collision was done by argon and the energy was set at 30 eV in MS/MS mode for detecting mass transitions: m/z 236.41→117.08; 236.41→131.10 and 236.41→158.27.
# [4] = influence of time before euthanasia, IP route: brain extract and plasma concentration; format: in vivo, C57BL\6J mice; settings: IP 70 mg/kg
# Method: This study was done on C57BL\6J (instead of RjOrl:SWISS) mice treated with compound 4bc by IP or per os.
# IP Route • Mice treated by IP route received a treatment of 70 mg/kg to […] of a solution of compound 4bc over 2 days comprising 2 IP injections the first day and 1 IP injection the second day.
smiles,measurement,setting,value
Cc1nc2ccc(N)cc2nc1-c1ccccc1 [Compound 4bc],activity on survival of dopaminergic neurons (in words),"[1]; 100 nM, compared with dbcAMP",nearly equal to the one induced by dbcAMP
same,activity at 0.1 µM,"[1]; Rattus norvegicus, Neuron, 192 h, compound at 100 nM, 8 days of culture, read-out: TH+ neurons in % of control ± SEM",140%
same,"TH+ neuron differentiation / neuritogenic effect (in words, FIG. 1)","[2]; 100 nM, versus negative control",significant increase; also recorded: longer and more numerous neurite extensions
same,activity at 0.1 µM,"[2]; Rattus norvegicus, Neuron, compound at 100 nM, read-out: Diff in % of control ± SEM",142%
same,brain extracts at 4-6 h less concentrated than at 2 h post-treatment,[3]; IP,2000 times
same,elimination from the brain over time,[3]; IP,eliminated quickly from the brain
same,mean value of extracts analyzed later lower than previously calculated (ratio of the means),"[3]; IP, 2 h brain extracts, stored at 4° C.",approximately 6 times
same,detection in old brain extracts,"[3]; IP, euthanized between 4 and 6 h after the last treatment, extracts stored 40 days at 4° C., n=8",detectable
same,crossing of the blood brain barrier in vivo,[3]; intraperitoneal administration,able to cross the blood brain barrier
same,concentration at 2 h,"[3]; euthanized 2 h after last treatment, extracts stored 40 days at 4° C., n=4, read-out: mean concentration in old brain extracts",1390 ng/mL
same,concentration at 2 h,"[3]; euthanized 2 h after the last treatment, n=3, read-out: mean concentration in brain extract",8830 ng/mL
same,concentration at 1 h,"[4]; C57BL\6J, mouse, brain extract, 3 injections over 2 days, euthanasia approximately 1 h after last treatment",1000 ng/mL
same,Brain extract concentration,"[4]; 3 injections over 2 days, euthanasia approximately 1 h after last treatment",1 µg/mL
same,Plasma concentration,[4]; approximately 1 h,1.2 µg/mL
same,Brain extract concentration,[4]; approximately 1 h 30 min,0.74 µg/mL
same,Plasma concentration,[4]; approximately 1 h 30 min,3.1 µg/mL
same,Brain extract concentration,[4]; approximately 1 h 55 min,0.1 µg/mL
same,Plasma concentration,[4]; approximately 1 h 55 min,1.7 µg/mL
same,Brain extract concentration,[4]; approximately 2 h 20 min,0.09 µg/mL
